Active and inactive are the calls of the source.
Legend:
[1] = molecular target: 72 kDa type IV collagenase (Homo sapiens, UniProt P08253); assay: Dose Response validation of uHTS RPN11 inhibitor hits using a MMP-2 Fluorescence assay.; type: functional
[2] = molecular target: 26S proteasome non-ATPase regulatory subunit 14 (Homo sapiens, UniProt O00487); assay: inhibition of proteasome subunit RPN11 – biochemical, fluorescence polarization, uHTS hits, confirmation (AID 602368); type: functional
Prothrombin = Prothrombin (Bos taurus, UniProt P00735); assay: thrombin protease inhibitors – biochemical, fluorescence polarization, uHTS hits, dose response (AID 602369); type: functional
[3] = molecular target: Dual specificity tyrosine-phosphorylation-regulated kinase 1A (Rattus norvegicus, UniProt Q63470); type: biochemical, Homo sapiens
Cytochrome P450 3A4 = Cytochrome P450 3A4 (Homo sapiens, UniProt P08684);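 note: CYP3A4 tested as one member of a cytochrome P450 panel screen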
Cytochrome P450 3A4, sequence (P08684 whole entry): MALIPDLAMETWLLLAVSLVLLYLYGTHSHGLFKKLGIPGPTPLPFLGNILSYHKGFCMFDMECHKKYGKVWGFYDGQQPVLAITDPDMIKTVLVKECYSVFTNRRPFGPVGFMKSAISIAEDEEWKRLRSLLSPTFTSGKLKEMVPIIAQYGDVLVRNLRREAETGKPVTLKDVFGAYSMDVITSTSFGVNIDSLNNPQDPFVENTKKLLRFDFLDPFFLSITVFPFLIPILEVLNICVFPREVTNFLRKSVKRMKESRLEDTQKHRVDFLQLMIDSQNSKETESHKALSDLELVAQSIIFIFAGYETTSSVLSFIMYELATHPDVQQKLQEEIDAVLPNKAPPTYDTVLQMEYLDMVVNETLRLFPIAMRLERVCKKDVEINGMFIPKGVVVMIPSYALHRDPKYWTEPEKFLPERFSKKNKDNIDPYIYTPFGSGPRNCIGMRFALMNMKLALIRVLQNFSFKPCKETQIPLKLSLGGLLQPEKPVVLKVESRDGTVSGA

[4] = molecular target: Alkaline phosphatase, placental type (Homo sapiens, UniProt P05187); assay: human placental alkaline phosphatase inhibition – biochemical, luminescence, confirmation (AID 1512); type: functional
Alkaline phosphatase, placental type, sequence (P05187 whole entry): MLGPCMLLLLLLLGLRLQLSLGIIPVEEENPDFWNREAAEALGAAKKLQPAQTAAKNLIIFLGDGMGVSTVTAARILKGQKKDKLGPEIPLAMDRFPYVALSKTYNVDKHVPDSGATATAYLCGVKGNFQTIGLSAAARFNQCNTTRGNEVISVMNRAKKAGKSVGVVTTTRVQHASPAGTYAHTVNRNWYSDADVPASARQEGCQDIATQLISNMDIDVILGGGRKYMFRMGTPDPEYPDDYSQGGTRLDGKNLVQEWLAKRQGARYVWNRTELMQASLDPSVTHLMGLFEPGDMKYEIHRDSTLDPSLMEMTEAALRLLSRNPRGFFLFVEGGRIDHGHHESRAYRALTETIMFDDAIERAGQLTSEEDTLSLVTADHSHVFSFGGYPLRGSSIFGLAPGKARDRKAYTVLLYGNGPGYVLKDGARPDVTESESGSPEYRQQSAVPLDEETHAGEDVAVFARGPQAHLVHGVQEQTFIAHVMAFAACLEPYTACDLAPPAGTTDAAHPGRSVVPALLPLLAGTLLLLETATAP

[5] = molecular target: T1, Alkaline phosphatase, tissue-nonspecific isozyme (Homo sapiens, UniProt P05186); assay: potency against alkaline phosphatase TNAP – biochemical, luminescent, dose response, SAR follow-up (AID 1056)
T1 sequence (P05186 whole entry): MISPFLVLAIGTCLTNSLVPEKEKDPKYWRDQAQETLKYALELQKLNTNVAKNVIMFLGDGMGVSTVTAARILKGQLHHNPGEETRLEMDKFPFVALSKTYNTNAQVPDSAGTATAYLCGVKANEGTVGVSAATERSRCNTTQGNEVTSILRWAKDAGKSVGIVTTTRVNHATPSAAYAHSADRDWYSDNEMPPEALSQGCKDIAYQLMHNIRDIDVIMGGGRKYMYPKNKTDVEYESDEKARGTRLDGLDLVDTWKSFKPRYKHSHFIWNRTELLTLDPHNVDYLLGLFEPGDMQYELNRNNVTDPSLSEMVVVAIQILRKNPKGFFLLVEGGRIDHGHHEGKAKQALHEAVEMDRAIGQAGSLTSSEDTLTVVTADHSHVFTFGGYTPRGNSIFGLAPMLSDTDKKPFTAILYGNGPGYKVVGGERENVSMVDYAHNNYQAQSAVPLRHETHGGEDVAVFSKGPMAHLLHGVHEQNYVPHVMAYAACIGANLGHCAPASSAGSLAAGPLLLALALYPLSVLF

[6] = molecular target: Glyceraldehyde-3-phosphate dehydrogenase (Homo sapiens, UniProt P04406)
Glyceraldehyde-3-phosphate dehydrogenase, sequence (P04406 whole entry): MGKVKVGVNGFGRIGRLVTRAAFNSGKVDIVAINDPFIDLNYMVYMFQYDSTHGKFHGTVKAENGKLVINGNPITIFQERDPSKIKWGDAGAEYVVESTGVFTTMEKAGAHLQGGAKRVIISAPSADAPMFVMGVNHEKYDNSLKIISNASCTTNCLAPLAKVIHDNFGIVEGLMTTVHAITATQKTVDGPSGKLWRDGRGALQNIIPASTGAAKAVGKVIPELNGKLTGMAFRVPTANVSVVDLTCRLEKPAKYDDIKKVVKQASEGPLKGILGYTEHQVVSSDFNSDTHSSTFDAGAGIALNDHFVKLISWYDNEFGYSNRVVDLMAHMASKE

[7] = NIH-3T3 fibroblast cytotoxicity, dose response, cytotoxicity control, cell-based, fluorescence, Alamar Blue, secondary assay (AID 2327); type: functional;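 note: NIH-3T3 mouse fibroblasts cultured with fluconazole at 8 µg/mL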
Beta-galactosidase = Beta-galactosidase (Escherichia coli, UniProt Q8VNN2); assay: detection-enzyme interference by beta-gal modulators – biochemical, E. coli enzyme, set 3, artefact control for CCR6 antagonist project, dose response (AID 504712); type: functional
Beta-galactosidase, sequence (Q8VNN2 whole entry): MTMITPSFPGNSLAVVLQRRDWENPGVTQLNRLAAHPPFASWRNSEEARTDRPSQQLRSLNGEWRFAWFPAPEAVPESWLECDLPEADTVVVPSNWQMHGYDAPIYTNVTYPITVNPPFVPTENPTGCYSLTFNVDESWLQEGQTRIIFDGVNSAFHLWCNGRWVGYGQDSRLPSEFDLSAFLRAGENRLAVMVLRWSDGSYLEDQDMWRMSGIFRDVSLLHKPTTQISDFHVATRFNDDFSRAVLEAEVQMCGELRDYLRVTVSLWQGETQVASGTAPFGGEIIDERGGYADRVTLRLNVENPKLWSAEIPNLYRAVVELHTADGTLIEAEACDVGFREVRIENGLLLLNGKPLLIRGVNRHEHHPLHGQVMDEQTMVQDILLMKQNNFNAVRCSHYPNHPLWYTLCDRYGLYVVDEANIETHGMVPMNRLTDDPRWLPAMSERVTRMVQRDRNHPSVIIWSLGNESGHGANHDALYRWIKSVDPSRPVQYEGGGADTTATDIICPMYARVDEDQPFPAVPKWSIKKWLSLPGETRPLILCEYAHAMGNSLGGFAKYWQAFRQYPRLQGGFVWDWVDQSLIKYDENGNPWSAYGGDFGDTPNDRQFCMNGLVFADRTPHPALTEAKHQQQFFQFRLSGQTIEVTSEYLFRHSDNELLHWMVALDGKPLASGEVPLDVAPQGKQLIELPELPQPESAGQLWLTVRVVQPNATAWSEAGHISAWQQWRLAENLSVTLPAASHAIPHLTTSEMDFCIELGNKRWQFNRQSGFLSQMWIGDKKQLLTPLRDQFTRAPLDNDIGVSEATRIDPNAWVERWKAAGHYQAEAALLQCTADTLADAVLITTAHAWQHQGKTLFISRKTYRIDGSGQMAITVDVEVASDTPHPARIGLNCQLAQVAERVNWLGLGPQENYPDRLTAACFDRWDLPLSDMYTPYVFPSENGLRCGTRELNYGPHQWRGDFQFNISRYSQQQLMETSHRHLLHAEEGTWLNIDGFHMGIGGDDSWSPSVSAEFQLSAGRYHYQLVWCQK

Nonstructural protein 1 = Nonstructural protein 1 (Influenza A virus, UniProt Q194T2); type: functional, Influenza A virus (A/California/07/2009(H1N1))
Nonstructural protein 1, sequence (Q194T2 whole entry): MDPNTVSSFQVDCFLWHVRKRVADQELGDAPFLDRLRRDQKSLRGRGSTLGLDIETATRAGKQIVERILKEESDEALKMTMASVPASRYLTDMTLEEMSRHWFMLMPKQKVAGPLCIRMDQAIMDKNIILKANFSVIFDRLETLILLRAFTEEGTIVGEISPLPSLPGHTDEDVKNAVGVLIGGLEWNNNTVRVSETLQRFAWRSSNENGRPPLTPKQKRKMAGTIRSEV

Cytochrome P450 2C9 = Cytochrome P450 2C9 (Homo sapiens, UniProt P11712)
Cytochrome P450 2C9, sequence (P11712 whole entry): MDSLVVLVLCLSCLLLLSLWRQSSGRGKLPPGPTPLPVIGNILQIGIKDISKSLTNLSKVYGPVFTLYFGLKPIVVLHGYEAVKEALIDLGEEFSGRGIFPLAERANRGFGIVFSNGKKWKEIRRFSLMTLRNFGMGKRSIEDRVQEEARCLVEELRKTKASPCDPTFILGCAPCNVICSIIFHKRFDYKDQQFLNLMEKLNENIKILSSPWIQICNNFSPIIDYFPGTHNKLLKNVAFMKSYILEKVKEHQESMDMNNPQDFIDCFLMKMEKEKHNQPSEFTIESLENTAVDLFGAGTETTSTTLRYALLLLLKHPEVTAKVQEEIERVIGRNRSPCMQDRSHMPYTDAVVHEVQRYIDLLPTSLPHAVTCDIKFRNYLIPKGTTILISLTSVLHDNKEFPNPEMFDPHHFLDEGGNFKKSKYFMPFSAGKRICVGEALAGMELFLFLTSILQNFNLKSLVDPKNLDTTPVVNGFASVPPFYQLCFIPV

26S proteasome non-ATPase regulatory subunit 14, sequence (O00487 whole entry): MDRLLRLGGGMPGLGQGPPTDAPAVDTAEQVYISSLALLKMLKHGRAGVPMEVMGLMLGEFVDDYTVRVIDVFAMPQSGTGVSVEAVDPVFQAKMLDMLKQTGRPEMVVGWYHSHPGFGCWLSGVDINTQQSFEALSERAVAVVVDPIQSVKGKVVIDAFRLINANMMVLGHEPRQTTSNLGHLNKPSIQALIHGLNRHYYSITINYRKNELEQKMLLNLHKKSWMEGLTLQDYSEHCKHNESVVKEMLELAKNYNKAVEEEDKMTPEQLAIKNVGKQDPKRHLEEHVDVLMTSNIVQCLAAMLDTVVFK
72 kDa type IV collagenase, sequence (P08253 whole entry): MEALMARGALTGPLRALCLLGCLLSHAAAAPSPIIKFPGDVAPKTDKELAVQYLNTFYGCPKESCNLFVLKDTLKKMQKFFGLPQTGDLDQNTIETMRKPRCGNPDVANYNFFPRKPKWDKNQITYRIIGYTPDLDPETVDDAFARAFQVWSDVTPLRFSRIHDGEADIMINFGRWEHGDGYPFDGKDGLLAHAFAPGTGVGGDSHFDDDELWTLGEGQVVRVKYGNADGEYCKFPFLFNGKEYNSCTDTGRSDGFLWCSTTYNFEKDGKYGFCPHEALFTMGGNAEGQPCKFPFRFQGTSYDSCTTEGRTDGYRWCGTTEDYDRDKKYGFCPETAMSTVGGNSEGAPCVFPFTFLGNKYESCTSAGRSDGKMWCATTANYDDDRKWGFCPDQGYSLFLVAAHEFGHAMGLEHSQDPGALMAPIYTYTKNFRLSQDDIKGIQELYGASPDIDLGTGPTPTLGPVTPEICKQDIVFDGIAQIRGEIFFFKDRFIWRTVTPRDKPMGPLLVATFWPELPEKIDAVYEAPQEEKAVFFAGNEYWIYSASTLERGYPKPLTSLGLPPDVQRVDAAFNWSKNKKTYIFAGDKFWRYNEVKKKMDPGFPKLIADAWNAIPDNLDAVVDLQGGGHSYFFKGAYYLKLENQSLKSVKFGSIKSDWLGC

Compound	AC50 (Cytochrome P450 3A4)	IC50 [4]	IC50 [5]	IC50 [6]	other results
COc1ccc2c3c([nH]c2c1)C(C)NCC3 (stereo unspecified)	–	–	–	–	IC50 [1]: > 100 µM (inactive); IC50 [2]: 17.9 µM (active); IC50 (Prothrombin): 13.7 µM (active); AC50 [3]: 2.99 µM (active)
CC(C)(C)C1CCC(OCC(O)CN2CCN(c3ccccc3)CC2)CC1.Cl (stereo unspecified)	inconclusive	–	–	–	–
O=C(c1cc(-c2cc(F)c(Cl)cc2Cl)[nH]n1)N1CCCCC1	–	> 100 µM (inactive)	0.322 µM (active)	> 100 µM (not active)	–
Cc1c(N=NC2=C(O)CC(C)(C)CC2=O)c(=O)n(-c2ccccc2)n1C	–	–	–	–	EC50 [7]: > 160 µM (inactive); IC50 (Beta-galactosidase): > 66.6 µM (inactive); IC50 (Nonstructural protein 1): 3.63 µM (active)
COC(=O)c1ccccc1NC(=O)CSc1nnc(-c2ccccc2Cl)[nH]1	–	> 100 µM (inactive)	4.88 µM (active)	> 100 µM (not active)	–
CCOC(=O)c1c(C)nc2sc3c(=O)n(-c4ccc(C)cc4)cnc3c2c1-c1ccc(OC)cc1	inconclusive	–	–	–	AC50 (Cytochrome P450 2C9): 0.355 µM (inconclusive)

Reference: ChEMBL document CHEMBL1201862, “PubChem BioAssay data set” (2004)
